In PMC9127501 (Frontiers in Microbiology, 2022):
Where “and” joins values, the source holds several entries; their conditions need not be identical. Identical values can stand only once. Like-named read-outs stand apart in the source and are kept apart here.

Assays:
recombinant SCoV-2 PLpro = recombinant SCoV-2 PLpro (Severe acute respiratory syndrome coronavirus 2, UniProt P0DTD1); assay: SCoV-2 PLpro inhibition assay (peptide-AMC fluorescence); type: biochemical, SARS-CoV-2; conditions: 60 μM peptide-AMC, 37°C, 45 min
HCoV-229E [1] = assay: MTT-based antiviral assay (protection from virus-induced CPE) in HCoV-229E-infected MRC-5 cells; type: cell-based, Human Coronavirus strain 229E; conditions: for % Antiviral Activity (Range) / EC50: HCoV-229E-infected MRC-5, 6 days; for % Antiviral Activity (Range): range over the assay conc. range of each compound; for EC50: MRC5, 144 h, no unit in head (assay conc. and CC50 columns in µM); for maximum antiviral effect: MRC-5, maximum over concentrations tested
HCoV-229E [2] = assay: qRT-PCR viral load in supernatants of HCoV-229E-infected MRC-5 cells; type: cell-based, Human Coronavirus strain 229E
in vitro [3] = conditions: human
SCoV-2 [4] = assay: Immunofluorescence antiviral screening assay (SCoV-2 nucleocapsid staining) in Vero E6 cells; type: cell-based, SARS-CoV-2
Protocol: The antiviral activity of the selected compound against SCoV-2 was analysed by immunofluorescent assay in a 96-well plate. For this, ~10^4 Vero E6 cells per well were seeded and grown to ≥80% confluency. At this stage, cells in replicate wells were treated with a safe dose (identified from the cytotoxicity studies) of the selected compound or with 10μM Remdesivir. These assays also included the necessary negative controls for comparison. The cells were infected with SCoV-2 at 0.1 MOI and, post-30 h incubation, fixed in 4% paraformaldehyde, permeabilized with 0.3% Tween-20 and stained with anti-mouse mAb specific to SCoV-2 Nucleocapsid (primary) followed by staining with Alexafluor 568-labelled anti-mouse antibody (secondary). Prior to mounting, monolayers were treated with Hoechst 33342 to stain the nuclei and the images were captured using ImageXpress Micro Confocal (Molecular devices) at 10 × magnification (16 images/well). The data was analysed in MetaXpress software using a multi-wavelength cell scoring module and the cells double-positive for the viral nucleocapsid as well as nuclei were counted and compared with that in the controls.

in vitro [5] = conditions: African green monkey, % Cell Viability, Vero E6, 30 h
Vero E6 cells = assay: Cytotoxicity assay in Vero E6 cells (Hoechst 33342 / Sytox orange imaging); conditions: for cytotoxicity: Vero E6
[6] = as above; conditions: African green monkey
PLpro = conditions: reported value, reference not printed at the place; cited from earlier work
SCoV-2 [7] = test system: SCoV-2; design: method as in Meyer et al., [2020]; conditions: at clinically relevant concentrations; ref Meyer et al., [2020]; cited from earlier work
[8] = HCoV-229E-infected MRC-5, 6 days, range over the assay conc. range
[9] = MRC-5 cells (human lung fibroblasts), uninfected
[10] = MRC-5, across the tested concentrations

Cc1cccc(C)c1OCC(=O)N[C@@H](Cc1ccccc1)[C@@H](O)C[C@H](Cc1ccccc1)NC(=O)[C@H](C(C)C)N1CCCNC1=O [Lopinavir]
IC50 (recombinant SCoV-2 PLpro; IC50, 100 nM PLpro): 1000 ± 100 µM
Selectivity Index (CC50/EC50) (HCoV-229E [1]; HCoV-229E, MRC-5): 2.03
% Antiviral Activity (Range) (HCoV-229E [1]): -6.3 to +72.4%
EC50 (HCoV-229E [1]; Human coronavirus 229E): 33 µM
log10 inhibition / reduction in viral load (HCoV-229E [2]; 40 μM, HCoV-229E, MRC-5): ~ 1.4 log10 and 1.42 log10
reduction in viral titers (HCoV-229E [2]; 40 μM, HCoV-229E, MRC-5): about 96%
% Reduction in Viral Load (Range) (HCoV-229E [2]; [8]): +96.2 to +29.1%
Log10 Reduction in Viral Load (Range) (HCoV-229E [2]; [8]): +1.42 to +0.15 Log10
CC50 at 6 days (in vitro [3]): 67 µM
cytotoxicity at 6 days (in vitro [3]): -9.6 to 99.9%

CC(C)c1nc(CN(C)C(=O)N[C@H](C(=O)N[C@@H](Cc2ccccc2)C[C@H](O)[C@H](Cc2ccccc2)NC(=O)OCc2cncs2)C(C)C)cs1 [Ritonavir]
protection from virus-induced CPE (HCoV-229E [1]; 70 μM, HCoV-229E, MRC-5): about 35%
% Antiviral Activity (Range) (HCoV-229E [1]): -3.8 to +36.4%
log10 inhibition / reduction in viral load (HCoV-229E [2]; 70 μM, HCoV-229E, MRC-5): ~0.6 log10
reduction in viral titers (HCoV-229E [2]; 70 μM, HCoV-229E, MRC-5): 73.3%
% Reduction in Viral Load (Range) (HCoV-229E [2]; [8]): +73.3 to -625.5%
Log10 Reduction in Viral Load (Range) (HCoV-229E [2]; [8]): +0.57 to -0.86 Log10
cytotoxicity at 6 days (in vitro [3]; [9]): 20.6 to 100%

C[C@H]1O[C@H](O[C@H]2[C@H](O)[C@@H](O)[C@@H](O[C@H]3[C@H](O)[C@@H](O)C(O)O[C@@H]3CO)O[C@@H]2CO)[C@H](O)[C@@H](O)[C@@H]1N[C@H]1C=C(CO)[C@@H](O)[C@H](O)[C@H]1O (stereo partly shown) [Acarbose]
IC50 (recombinant SCoV-2 PLpro; IC50, 100 nM PLpro): 2000 ± 280 µM
maximum antiviral effect (HCoV-229E [1]; HCoV-229E): about 8%
% Antiviral Activity (Range) (HCoV-229E [1]): +0.3 to +7.2%
EC50 (HCoV-229E [1]; Human coronavirus 229E): > 7750 µM
maximum cytotoxicity (MRC-5 cells; human): < 15%
CC50 at 6 days (in vitro [3]): > 7750 µM
cytotoxicity at 6 days (in vitro [3]): -15 to 7%

CCC(CC)COC(=O)[C@H](C)N[P@](=O)(OC[C@H]1O[C@@](C#N)(c2ccc3c(N)ncnn23)[C@H](O)[C@@H]1O)Oc1ccccc1 [Remdesivir]
% Inhibition (SCoV-2 N-positive cells) (SCoV-2 [4]; 10 µM, SCoV-2-infected Vero E6, 30 h): 99.2%
cells protected from SCoV-2-induced CPE (SCoV-2 [4]; 10 μM, Vero E6): > 99%
inhibition at 10 µM (SCoV-2 [4]; Severe acute respiratory syndrome coronavirus 2, Vero C1008, 30 h, 10 µM, SCoV-2-infected Vero E6, 30 h, read-out: % Inhibition (SCoV-2 N-positive cells)): > 99%
viability at 10 µM (in vitro [5]): > 99%
% Cell Viability (Vero E6 cells; 10 µM, Vero E6, 30 h): 99.23%

OC[C@@H](O)[C@@H](O[C@@H]1O[C@H](CO)[C@H](O)[C@H](O)[C@H]1O)[C@H](O)[C@@H](O)CO [Lactitol]
IC50 (recombinant SCoV-2 PLpro; IC50, 100 nM PLpro): 8800 ± 500 µM
maximum antiviral effect (HCoV-229E [1]; HCoV-229E): about 8%
% Antiviral Activity (Range) (HCoV-229E [1]): -1.2 to +5.3%
EC50 (HCoV-229E [1]; Human coronavirus 229E): > 2900 µM
maximum cytotoxicity (MRC-5 cells; [10]): < 15%
CC50 at 6 days (in vitro [3]; [9]): > 2900 µM
cytotoxicity at 6 days (in vitro [3]; [9]): -8.9 to 1.8%

Cc1cc2nc3c(=O)[nH]c(=O)nc-3n(C[C@H](O)[C@H](O)[C@H](O)COP(=O)(O)OP(=O)(O)OC[C@H]3O[C@@H](n4cnc5c(N)ncnc54)[C@H](O)[C@@H]3O)c2cc1C [FAD, Flavin adenine dinucleotide]
IC50 (recombinant SCoV-2 PLpro; IC50, 100 nM PLpro): ~127 µM and 127 µM
maximum antiviral effect (HCoV-229E [1]; HCoV-229E): about 8%
% Antiviral Activity (Range) (HCoV-229E [1]): -1.3 to +8.1%
EC50 (HCoV-229E [1]; Human coronavirus 229E): > 1200 µM
maximum cytotoxicity (MRC-5 cells; [10]): < 15%
CC50 at 6 days (in vitro [3]; [9]): > 1200 µM
cytotoxicity at 6 days (in vitro [3]; [9]): -10.5 to 12.7%

OC(c1cc(C(F)(F)F)nc2c(C(F)(F)F)cccc12)C1CCCCN1 (stereo not shown) [Mefloquine]
IC50 (recombinant SCoV-2 PLpro; IC50, 100 nM PLpro): ~459 µM and 459 µM
protection from virus-induced CPE (HCoV-229E [1]; 120 μM, HCoV-229E, MRC-5): ~ 62% and ~ 60%
% Antiviral Activity (Range) (HCoV-229E [1]): -0.4 to +60.6%
EC50 (HCoV-229E [1]; Human coronavirus 229E): 108 µM
log10 inhibition of viral titers (HCoV-229E [2]; 120 μM, HCoV-229E, MRC-5): ~0.8 log10
reduction in viral titers (HCoV-229E [2]; 120 μM, HCoV-229E, MRC-5): 84.7%
% Reduction in Viral Load (Range) (HCoV-229E [2]; [8]): +84.7 to +38.4%
Log10 Reduction in Viral Load (Range) (HCoV-229E [2]; [8]): +0.81 to +0.21 Log10
% Inhibition (SCoV-2 N-positive cells) (SCoV-2 [4]; 0.5 µM (500 nM), SCoV-2-infected Vero E6, 30 h, 0.5 µM): 30% and 30.6%
inhibition at 0.5 µM (SCoV-2 [4]; Severe acute respiratory syndrome coronavirus 2, Vero C1008, 30 h, read-out: % Inhibition (SCoV-2 N-positive cells), 0.5 µM (500 nM), SCoV-2-infected Vero E6, 30 h): ~31%
CC50 at 6 days (in vitro [3]; [9]): 173 µM
cytotoxicity at 6 days (in vitro [3]; [9]): 11.5 to 93.2%
viability at 30 h, 0.5 µM [6]: 93.2%
viability at 30 h, 5 µM [6]: 45.6%
cytotoxicity (Vero E6 cells; 0.5 μM): 7%
cytotoxicity (Vero E6 cells; 5 μM): about 45%

C[C@@H]1O[C@@H](OC[C@H]2O[C@@H](Oc3c(-c4ccc(O)c(O)c4)oc4cc(O)cc(O)c4c3=O)[C@H](O)[C@@H](O)[C@@H]2O)[C@H](O)[C@H](O)[C@H]1O [Rutin]
virus-infected cells protected from virus-induced CPE (HCoV-229E [1]; HCoV-229E, MRC-5, concentration not stated at the place): about 37%
% Antiviral Activity (Range) (HCoV-229E [1]): -1.1 to +37.1%
log10 inhibition / reduction in viral titers (HCoV-229E [2]): ~0.2 log10
reduction in viral titers (HCoV-229E [2]): 38.44%
% Reduction in Viral Load (Range) (HCoV-229E [2]; [8]): +38.4 to -455.4%
Log10 Reduction in Viral Load (Range) (HCoV-229E [2]; [8]): +0.21 to -0.74 Log10
CC50 (in vitro [3]): 351 µM
cytotoxicity (in vitro [3]): -5.9 to 89.5%

Cc1ccc(N)cc1C(=O)N[C@H](C)c1cccc2ccccc12 [GRL0617, (R)-5-amino-2-methyl-N-(1-(naphthalen-1-yl)ethyl) benzamide]
% Antiviral Activity (Range) (HCoV-229E [1]): -1.9 to +33.7%
% Reduction in Viral Load (Range) (HCoV-229E [2]; [8]): Inconsistent
Log10 Reduction in Viral Load (Range) (HCoV-229E [2]; [8]): Inconsistent
CC50 at 6 days (in vitro [3]): 137 µM
cytotoxicity at 6 days (in vitro [3]): 6.2 to 76%

NC(=O)c1nc(F)c[nH]c1=O [Favipiravir]
protection from virus-induced CPE (HCoV-229E [1]; 250 μM, HCoV-229E, MRC-5): failed to show any obvious protection
% Antiviral Activity (Range) (HCoV-229E [1]): -0.6 to +26.9%
inhibition at 500 µM (HCoV-229E [1]; Human coronavirus 229E, MRC5, 500 μM, HCoV-229E, MRC-5, read-out: cells in which virus-induced CPE was inhibited): ~17%
% Reduction in Viral Load (Range) (HCoV-229E [2]; [8]): 0.0 to +81.6%
Log10 Reduction in Viral Load (Range) (HCoV-229E [2]; [8]): +0.74 to 0.0 Log10
CC50 at 6 days (in vitro [3]): 665 µM
cytotoxicity at 6 days (in vitro [3]): -8.1 to 67.5%

CC(C)CN(C[C@@H](O)[C@H](Cc1ccccc1)NC(=O)O[C@H]1CO[C@H]2OCC[C@H]21)S(=O)(=O)c1ccc(N)cc1 [Darunavir]
IC50 (recombinant SCoV-2 PLpro; 100 nM PLpro, read-out: IC50): 1320 ± 200 µM
% Reduction in Viral Load (Range) (HCoV-229E [2]): 0.0 to +97.6%
Log10 Reduction in Viral Load (Range) (HCoV-229E [2]): 0.0 to +1.62 Log10
log10 inhibition / reduction in viral load (HCoV-229E [2]): 1.42 log10
reduction in viral titers (HCoV-229E [2]): about 96%
activity against SCoV-2 (in words) (SCoV-2 [7]): completely ineffective
cytotoxicity (in vitro [3]): -14.4 to 97.2%
viability (in vitro [3]): 44.5%
